Assay results as given in patent publication US11104661B1, “Inhibiting human integrin (α-4) (β-7)” (Morphic Therapeutic, Inc., priority 2019, dated 2021).
pIC50: −log10 of the molar value.

Target: T1, integrin α4β7 (Homo sapiens, UniProt P13612+P26010)
T1 sequence (P13612 35-977 limits assumed): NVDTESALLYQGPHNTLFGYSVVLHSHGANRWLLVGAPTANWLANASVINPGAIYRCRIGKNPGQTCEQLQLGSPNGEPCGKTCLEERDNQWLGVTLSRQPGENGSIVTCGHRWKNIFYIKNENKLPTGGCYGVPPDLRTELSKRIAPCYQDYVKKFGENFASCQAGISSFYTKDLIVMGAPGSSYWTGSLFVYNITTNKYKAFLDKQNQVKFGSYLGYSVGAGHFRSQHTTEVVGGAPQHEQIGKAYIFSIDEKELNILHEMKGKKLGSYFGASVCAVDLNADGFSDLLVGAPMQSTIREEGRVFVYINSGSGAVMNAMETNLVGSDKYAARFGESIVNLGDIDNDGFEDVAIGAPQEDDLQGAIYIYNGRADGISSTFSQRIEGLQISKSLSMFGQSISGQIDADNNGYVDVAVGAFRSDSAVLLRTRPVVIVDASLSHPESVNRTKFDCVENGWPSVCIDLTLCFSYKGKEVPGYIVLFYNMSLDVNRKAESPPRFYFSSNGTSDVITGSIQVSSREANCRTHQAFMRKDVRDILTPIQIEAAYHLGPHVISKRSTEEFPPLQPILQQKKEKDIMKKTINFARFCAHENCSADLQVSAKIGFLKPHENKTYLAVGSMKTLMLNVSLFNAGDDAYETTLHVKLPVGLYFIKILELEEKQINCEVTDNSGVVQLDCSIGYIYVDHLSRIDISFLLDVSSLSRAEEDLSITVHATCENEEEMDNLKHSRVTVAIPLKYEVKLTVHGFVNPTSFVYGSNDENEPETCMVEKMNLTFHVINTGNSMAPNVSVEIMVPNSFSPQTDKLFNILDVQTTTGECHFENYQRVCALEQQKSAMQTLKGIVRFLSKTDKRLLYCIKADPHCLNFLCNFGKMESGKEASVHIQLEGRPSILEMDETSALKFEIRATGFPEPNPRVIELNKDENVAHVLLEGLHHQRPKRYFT
T1 sequence (P26010 20-723 limits assumed): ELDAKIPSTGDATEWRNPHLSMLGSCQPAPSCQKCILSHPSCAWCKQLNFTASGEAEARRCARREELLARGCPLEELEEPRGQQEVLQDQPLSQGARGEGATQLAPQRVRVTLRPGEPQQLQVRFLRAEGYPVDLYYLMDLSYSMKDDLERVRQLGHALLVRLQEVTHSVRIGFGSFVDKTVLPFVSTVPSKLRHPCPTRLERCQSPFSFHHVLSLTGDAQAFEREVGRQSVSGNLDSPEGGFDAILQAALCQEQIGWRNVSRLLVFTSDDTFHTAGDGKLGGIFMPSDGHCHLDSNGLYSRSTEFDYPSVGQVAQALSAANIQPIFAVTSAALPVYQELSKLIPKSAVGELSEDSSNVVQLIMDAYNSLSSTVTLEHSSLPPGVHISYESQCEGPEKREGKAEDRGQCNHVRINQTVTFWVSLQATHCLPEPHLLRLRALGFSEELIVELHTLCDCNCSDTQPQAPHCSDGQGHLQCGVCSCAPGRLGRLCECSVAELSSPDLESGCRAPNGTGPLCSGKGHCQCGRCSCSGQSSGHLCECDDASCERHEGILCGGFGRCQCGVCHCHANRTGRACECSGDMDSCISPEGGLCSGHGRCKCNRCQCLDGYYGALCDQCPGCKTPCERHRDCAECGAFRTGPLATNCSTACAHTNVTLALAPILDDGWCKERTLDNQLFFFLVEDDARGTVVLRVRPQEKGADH
Test: Fluorescence polarization (FP) assay for α4β7 binding (Example 5)
Settings: competition with fluorescein-labeled peptide, 6.5 nM integrin α4β7, 2 mM manganese chloride
Experimental: Compounds of Formula (I) were evaluated using a fluorescent polarization (FP) assay. FP assays are used to evaluate potency of compounds on purified protein. The FP assays consists of measuring purified integrin αβ heterodimer ecto domains or headpiece binding to surrogate or truncated ligands.
Three in vitro assays were used to examine the α4β7 mechanistic process used by cells: 1) ligand:receptor affinity, 2) the avidity of those interactions on a cell's surface, and 3) how those interactions fare under an imposing force. In Example 5, a Fluorescence Polarization (FP) assay is used to measure compound activity through binding competition with the fluorescein-labeled peptide. In Example 6, the potency of compounds against α4β7 is measured in the cell-based ligand binding assay (LBA), using RPMI 8866 cells incubated with the compound samples in competition with soluble MAdCAM-1 ligand. In Example 7, activity of compounds is evaluated in a cell adhesion assay that mechanistically tests what occurs in vivo when trafficking cells utilize α4β7 to adhere to MAdCAM-1 expressing HEVs of the gut during the extravasation process. In the cell adhesion assay of Example 7, a MAdCAMI1-(Fc) is coated on plastic, and α4β7 expressing cells (RPMI-8866) are allowed to adhere to the coated surface in the presence of the test compounds. Next, the force of washing with buffer is applied to cells thereby testing the strength of that adhesion. Unattached cells are removed and the remaining adherent cells are quantified.
Fluorescence Polarization (FP) assays were used to measure compound activity through binding competition with the fluorescein-labeled peptide […]{Lys(FITC)}. In the assay, 6.5 nM of integrin α4β7 was incubated with the test compound in 2 mM manganese chloride, 0.1 mM calcium chloride, 20 mM HEPES buffer at pH 7.3, 150 mM sodium chloride, 0.01% Triton X-100, 2% DMSO, and 3 nM of the fluorescein-labeled peptide. Running the assays in 384-well plates, the integrin protein was pre-incubated with the test compounds for 15 minutes at 22° C. before the fluorescein-labeled peptide was added. After the fluorescein-labeled peptide was added, the assay was incubated at 22° C. for 1 hour and fluorescence polarization was measured. IC50 values were determined by nonlinear regression, four-parameter curve fitting.

pIC50 (Table 4 comparative compounds)	pIC50 (Table 3)	SMILES
≥ 8.00	–	Cc1cccc(C)c1-c1cccc([C@H](CC(=O)O)NC(=O)[C@H](CC(C)C)n2cc(CCN(C)C)ccc2=O)c1
≥ 8.00	–	Cc1cccc(C)c1-c1cccc([C@H](CC(=O)O)NC(=O)[C@H](CC(C)C)n2ccc(CCN(C)C)cc2=O)c1
≥ 8.00	–	Cc1cccc(C)c1-c1cccc([C@H](CC(=O)O)NC(=O)[C@H](CC(C)C)n2cccc(CCN(C)C)c2=O)c1
≥ 8.00	–	Cc1cccc(C)c1-c1cccc([C@H](CC(=O)O)NC(=O)[C@H](CC(C)C)n2cc(CN3CC[C@@H](F)C3)ccc2=O)c1
≥ 8.00	–	Cc1cccc(C)c1-c1cncc([C@H](CC(=O)O)NC(=O)[C@H](CC(C)C)n2ccc(C(F)(F)F)cc2=O)c1
≥ 8.00	–	Cc1ccn([C@@H](CC(C)C)C(=O)N[C@@H](CC(=O)O)c2cncc(-c3c(C)cccc3C)c2)c(=O)c1
≥ 8.00	–	Cc1cccc(C)c1-c1cncc([C@H](CC(=O)O)NC(=O)C(CC(C)C)n2cc(C(F)(F)F)ccc2=O)c1 (some centres unmarked)
≥ 8.00	–	Cc1cccc(C)c1-c1cncc([C@H](CC(=O)O)NC(=O)[C@H](CC(C)C)n2cc(CN3CC(F)C3)ccc2=O)c1
≥ 8.00	–	Cc1cccc(C)c1-c1cncc([C@H](CC(=O)O)NC(=O)[C@H](CC(C)C)N2CC[C@@H](C(F)(F)F)CC2=O)c1
≥ 8.00	–	CC(C)C[C@@H](C(=O)N[C@@H](CC(=O)O)c1ccc(-c2ccc(F)cc2)cc1)n1cc(CCN(C)C)c(C(F)(F)F)cc1=O
≥ 8.00	–	CC(C)C[C@@H](C(=O)N[C@@H](CC(=O)O)c1ccc(-c2ccc(F)cc2)cc1)n1cc(CCN2CC(F)C2)cc(F)c1=O
≥ 8.00	–	CC(C)C[C@@H](C(=O)N[C@@H](CC(=O)O)c1ccc(-c2ccccc2)cc1)n1cc(CCN2CC(F)C2)cc(F)c1=O
≥ 8.00	–	Cc1ccccc1-c1cccc([C@H](CC(=O)O)NC(=O)[C@H](CC(C)C)n2cccc(C)c2=O)c1
6.30 to 8.00	–	CC(C)C[C@@H](C(=O)N[C@@H](CC(=O)O)c1ccc(-c2ccccc2)cc1)n1cc(CCN(C)C)c(C(F)(F)F)cc1=O
6.30 to 8.00	–	Cc1ccccc1-c1cc([C@H](CC(=O)O)NC(=O)[C@H](CC(C)C)n2ccccc2=O)ccc1C
6.30 to 8.00	–	Cc1ccccc1-c1cccc([C@H](CC(=O)O)NC(=O)[C@H](CC(C)C)n2ccncc2=O)c1
6.30 to 8.00	–	COc1cccc(F)c1-c1cccc([C@H](CC(=O)O)NC(=O)[C@H](CC(C)C)n2cnc3ccccc3c2=O)c1
6.30 to 8.00	–	Cc1ccccc1-c1cccc([C@H](CC(=O)O)NC(=O)[C@H](CC(C)C)n2ccccc2=O)c1
6.30 to 8.00	–	Cc1ccccc1-c1cc([C@H](CC(=O)O)NC(=O)C(CC(C)C)n2ccccc2=O)ccn1 (some centres unmarked)

pIC50 (Table 4 comparative compounds)	pIC50 (Table 3)	SMILES
6.30 to 8.00	–	COc1ccc([C@H](CC(=O)O)NC(=O)C(CC(C)C)n2ccccc2=O)cc1-c1ccccc1C (some centres unmarked)
≥ 8.00	–	Cc1ccc([C@@H](C(=O)N[C@@H](CC(=O)O)c2cncc(-c3c(C)cccc3C)c2)N2CC(C)CCC2=O)cc1 (some centres unmarked)
6.30 to 8.00	–	Cc1cccc(C)c1-c1cc([C@H](CC(=O)O)NC(=O)[C@H](CC(C)C)n2ccccc2=O)ccn1
≥ 8.00	–	Cc1ccccc1-c1cc([C@H](CC(=O)O)NC(=O)C(CC(C)C)n2ccccc2=O)ccc1C#N (some centres unmarked)
6.30 to 8.00	–	COC[C@@H](C(=O)N[C@@H](CC(=O)O)c1cccc(-c2c(C)cccc2C)c1)n1ccc(C)cc1=O
≥ 8.00	–	Cc1cccc(C)c1-c1cncc([C@H](CC(=O)O)NC(=O)[C@H](CC(C)C)n2ccccc2=O)c1
–	≥ 8.00	Cc1cc(C)c(-c2cc(C)c(F)c([C@H](CC(=O)O)NC(=O)C(CC(C)C)n3cc(CCN(C)C)c(C(F)(F)F)cc3=O)c2)c(C)c1 (single isomer, unassigned) [AC-P2]
–	≥ 8.00	Cc1cc(-c2c(C)ccc(F)c2C)cc([C@H](CC(=O)O)NC(=O)C(CC(C)C)n2cc(CCN3CCC3)c(C(F)(F)F)cc2=O)c1F (single isomer, unassigned) [AF-P2]
–	≥ 8.00	COc1ccc(C)c(-c2cc(C)c(F)c([C@H](CC(=O)O)NC(=O)C(CC(C)C)n3cc(CCN4CCC4)c(C(F)(F)F)cc3=O)c2)c1C (single isomer, unassigned) [AG-P2]
–	≥ 8.00	Cc1cc(-c2c(C)cccc2C)cc([C@H](CC(=O)O)NC(=O)C(CC(C)C)n2cc(CCN3CC[C@@H](F)C3)cc(F)c2=O)c1F (single isomer, unassigned) [AU-P2]
–	≥ 8.00	Cc1cc(-c2c(C)cccc2C)cc([C@H](CC(=O)O)NC(=O)C(CC(C)C)n2cc(CCN3CC(F)C3)cc(F)c2=O)c1F (single isomer, unassigned) [AV-P2]
–	≥ 8.00	Cc1cccc(C)c1-c1cc([C@H](CC(=O)O)NC(=O)C(CC(C)C)n2cc(CCN3CCC3)c(C(F)(F)F)cc2=O)c(F)c(C(F)(F)F)c1 (single isomer, unassigned) [G-P2]
≥ 8.00	–	Cc1cccc(C)c1-c1cccc([C@H](CC(=O)O)NC(=O)[C@H](CC(C)C)n2cc(CN3CC(F)C3)ccc2=O)c1 [drawing 572]
≥ 8.00	–	Cc1cccc(C)c1-c1cccc([C@H](CC(=O)O)NC(=O)[C@H](CC(C)C)n2cc(CN3CC(F)C3)ccc2=O)c1 [drawing 577]
≥ 8.00	–	Cc1cccc(C)c1-c1cccc([C@H](CC(=O)O)NC(=O)[C@H](CC(C)C)n2cc(CN3CC(F)C3)ccc2=O)c1 [drawing 585]
≥ 8.00	–	Cc1cccc(C)c1-c1cccc([C@H](CC(=O)O)NC(=O)[C@H](CC(C)C)n2cc(CN3CC(F)C3)ccc2=O)c1 [drawing 589]
≥ 8.00	–	Cc1cccc(C)c1-c1cccc([C@H](CC(=O)O)NC(=O)[C@H](CC(C)C)n2cc(CN3CC(F)C3)ccc2=O)c1 [drawing 594]
≥ 8.00	–	Cc1cccc(C)c1-c1cccc([C@H](CC(=O)O)NC(=O)[C@H](CC(C)C)n2cc(CN3CC(F)C3)ccc2=O)c1 [drawing 599]
≥ 8.00	–	Cc1cccc(C)c1-c1cccc([C@H](CC(=O)O)NC(=O)[C@H](CC(C)C)n2cc(CN3CC(F)C3)ccc2=O)c1 [drawing 604]
